Experiments:
[1] = Displacement of [3H]-ifenprodil from ifenprodil binding site of NMDA receptor in porcine hippocampus synaptosomal fractions after 2 hrs; assay type: tissue-based, Sus scrofa
[2] = Displacement of [3H]MK-801 from high affinity site of NMDA-NR2B receptor in porcine hippocampus synaptosomal fractions after 15 mins; assay type: tissue-based, Sus scrofa
[3] = Displacement of [3H]MK-801 from low affinity site of NMDA receptor in porcine hippocampus synaptosomal fractions after 15 mins; assay type: tissue-based, Sus scrofa
[4] = molecular target: hERG (KCNH2) (Homo sapiens, UniProt Q12809); assay: Residual current of human ERG expressed in CHO-K1 cells at 100 uM by patch clamp electrophysiological assay relative to control; conditions: CHO-K1 cells expressing human ERG
hERG (KCNH2), sequence (Q12809 whole entry): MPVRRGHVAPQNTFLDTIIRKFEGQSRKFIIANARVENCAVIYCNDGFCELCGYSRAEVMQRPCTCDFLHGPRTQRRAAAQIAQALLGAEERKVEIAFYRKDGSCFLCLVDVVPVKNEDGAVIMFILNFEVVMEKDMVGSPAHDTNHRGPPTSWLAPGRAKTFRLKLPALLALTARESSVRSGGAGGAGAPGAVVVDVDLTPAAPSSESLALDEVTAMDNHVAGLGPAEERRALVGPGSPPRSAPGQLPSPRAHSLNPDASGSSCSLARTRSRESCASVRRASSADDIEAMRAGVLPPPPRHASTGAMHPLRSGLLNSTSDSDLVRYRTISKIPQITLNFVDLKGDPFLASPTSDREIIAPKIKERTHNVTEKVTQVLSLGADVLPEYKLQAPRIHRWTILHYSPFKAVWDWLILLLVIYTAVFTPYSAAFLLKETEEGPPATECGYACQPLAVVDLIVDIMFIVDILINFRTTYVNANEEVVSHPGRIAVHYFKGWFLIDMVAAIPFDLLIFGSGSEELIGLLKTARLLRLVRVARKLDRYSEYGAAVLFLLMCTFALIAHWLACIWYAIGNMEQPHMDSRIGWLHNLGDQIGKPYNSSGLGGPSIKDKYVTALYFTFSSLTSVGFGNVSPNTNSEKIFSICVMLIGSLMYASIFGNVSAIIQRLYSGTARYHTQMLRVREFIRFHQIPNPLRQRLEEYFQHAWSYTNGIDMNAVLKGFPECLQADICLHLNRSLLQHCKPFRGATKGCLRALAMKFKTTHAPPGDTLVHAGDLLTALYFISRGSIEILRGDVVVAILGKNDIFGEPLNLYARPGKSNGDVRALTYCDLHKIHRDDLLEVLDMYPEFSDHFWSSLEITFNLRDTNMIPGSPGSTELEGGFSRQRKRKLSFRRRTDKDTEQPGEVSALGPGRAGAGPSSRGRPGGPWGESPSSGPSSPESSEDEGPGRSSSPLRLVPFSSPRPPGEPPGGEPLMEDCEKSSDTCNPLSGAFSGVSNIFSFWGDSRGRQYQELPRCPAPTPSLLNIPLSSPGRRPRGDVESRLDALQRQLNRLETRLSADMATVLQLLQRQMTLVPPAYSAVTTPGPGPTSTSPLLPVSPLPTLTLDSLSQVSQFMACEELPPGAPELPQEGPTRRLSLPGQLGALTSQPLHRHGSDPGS

[5] = Displacement of [3H]MK-801 from NMDA-NR2B receptor in porcine hippocampus synaptosomal fractions under nonequilibrium conditions after 15 mins; assay type: tissue-based, Sus scrofa
[6] = species on record: Sus scrofa; assay: Displacement of [3H]MK-801 from NMDA-NR2B receptor in porcine hippocampus synaptosomal fractions at 100 uM after 15 mins relative to control; assay type: tissue-based
[7] = species on record: Sus scrofa; assay: Displacement of [3H]-ifenprodil from ifenprodil binding site of NMDA receptor in porcine hippocampus synaptosomal fractions at 100 uM after 2 hrs relative to control; assay type: tissue-based
[8] = Displacement of [3H]-ifenprodil from ifenprodil binding site of NMDA receptor low affinity site in porcine hippocampus synaptosomal fractions after 2 hrs; assay type: tissue-based, Sus scrofa

IC50 [1]	IC50 [5]	SMILES	further results
0.27 µM		CN1Cc2ccccc2[C@@H]1C[C@H](O)c1ccc(Cl)cc1	IC50 [2]: 0.5 µM; IC50 [3]: 67 µM; residual current at 100 µM [4]: 1.6%
0.43 µM		Cc1ccc([C@@H](O)C[C@H]2c3ccccc3CN2C)cc1	IC50 [2]: 0.21 µM; IC50 [3]: 20 µM; residual current at 100 µM [4]: 2.6%
42 µM	43 µM	CN1Cc2ccccc2[C@H]1C[C@H](O)c1ccc([N+](=O)[O-])cc1	
52 µM		CN1Cc2ccccc2[C@H]1C[C@@H](O)c1ccc([N+](=O)[O-])cc1	Activity [6]: 82%
	28 µM	Cc1ccc([C@H](O)C[C@H]2c3ccccc3CN2C)cc1	Activity [7]: 65%
7.5 µM	43 µM	CN1Cc2ccccc2[C@@H]1C[C@H](O)c1ccc([N+](=O)[O-])cc1	
	39 µM	CN1Cc2ccccc2[C@@H]1C[C@@H](O)c1ccc([N+](=O)[O-])cc1	Activity [7]: 54%
11 µM		CN1Cc2ccccc2[C@H]1C[C@@H](O)c1ccc(Cl)cc1	Activity [6]: 78%
9.3 µM	23 µM	Cc1ccc([C@@H](O)C[C@@H]2c3ccccc3CN2C)cc1	
	26 µM	CN1Cc2ccccc2[C@@H]1C[C@@H](O)c1ccc(Cl)cc1	Activity [7]: 77%
35 µM	31 µM	Cc1ccc([C@H](O)C[C@@H]2c3ccccc3CN2C)cc1	
21 µM	47 µM	CN1Cc2ccccc2[C@H]1C[C@H](O)c1ccc(Cl)cc1	
		COc1cc2c(cc1OC)[C@H](C[C@H](O)c1ccc(Cl)cc1)N(C)CC2	IC50 [8]: 22.5 µM; IC50 [2]: 0.103 µM; IC50 [3]: 23.5 µM
